Ends that are not written are not given here.
Key:
[1] = system: circulating CD8^+ T cells; test: ex vivo HLA-A3 multimer (MMr) staining of PBMCs; assay type: cell-based, human; conditions: HLA-A3^+ T1D and healthy donors
Protocol: HLA-A3 MMrs were produced and used as described (Gonzalez-Duque, Cell Metab 2018). Each peptide-HLA-A3 complex was used at a final concentration of 8-27 nM and conjugated with fluorochrome-labeled streptavidin at a 1:4 ratio. The concentration of each fluorescent MMr was corrected for the variable staining index of each streptavidin, in order to obtain a distinct double-MMr^+ population for each fluorochrome pair. Compensations were set using fluorescence-minus-one samples (i.e. omitting one streptavidin at a time). The combinatorial MMr panel was first set up by staining HLA-A3^+ PBMCs with the same set of fluorescent streptavidin-labeled MMrs, all loaded with the Flu NP265-273 epitope, which yielded a similar MMr^+CD8^+ T-cell frequency for all the 15 MMr combination pairs.
PBMCs were thawed at 37° C. and immediately diluted in pre-warmed AIM-V medium. Following centrifugation and one additional wash in AIM-V, PBMCs were counted and rested in the presence of 50 nM dasatinib for 30 min at 37° C. to prevent internalization of T-cell receptors before magnetic depletion of CD8^− cells (StemCell Technologies). Staining was performed for 20 min at 20° C. in […] PBS-dasatinib for 10^7 cells with combinatorial double-coded MMr panels, followed, without washing, by CD3-APC-H7 (RRID AB_1645475), CD8-PE-Cy7 (AB_396852), CD45RA-FITC (AB_395879), CCR7-BV421 (AB_2728119) monoclonal antibodies and Live/Dead Aqua (ThermoFisher) staining at 4° C. for 20 min. After one wash, cells were acquired using a FACSAria III cytometer. […] Flow cytometry data were analyzed with FlowJo v10 and Graphpad Prism 7.0 software. Cells were sequentially gated on small lymphocytes, singlets, live cells (Live/Dead Aqua l, CD3^+CD8^+ T cells and total PE^+, PE-CF594^+, APC^+, BV650^+, BV711^+ and BV786^+ MMr^+ T cells. Using Boolean operators, these latter gates allowed to selectively visualize each double-MMr^+ population by including only those events positive for the corresponding fluorochrome pair. For example, SCG3166-174 MMr^+ cells (PE^+PE-CF594^+) were visualized by gating on events that were PE^+PE-CF594^+APC^−BV650^−BV711^−BV786^−. Events negative for all MMr fluorochromes (PE^−PE-CF594^−APC^−BV650^−BV711^−BV786^−) were represented in the same PE/PE-CF-594 dot plot to set the double-MMr^+ gate. CD45RA and CCR7 staining was subsequently visualized by gating on these MMr^+ cells.

[2] = system: islet-infiltrating CD8^+ T cells of NOD mice; test: IFN-γ recall assay of islet-infiltrating cells against peptide-pulsed K^d+ L cells; assay type: cell-based, mouse; conditions: 12-16-week-old NOD females; for percentage of IFN-γ^+CD8^+ cells, median / percentage of IFN-γ^+CD8^+ cells, positive range: 6 h recall; for positive mice (IFN-γ^+CD8^+ cells >1.8%): positive / tested
Excerpt: Peptides predicted to be restricted by the murine MHC Class I K^d molecule were identified using prediction algorithms and scanning of the whole murine protein sequence. Peptides were first tested in pools, and positive pools subsequently deconvoluted for reactivity against individual peptides. To this end, islets were isolated from 12-16-week-old NOD mice by collagenase digestion and put in culture with recombinant human IL-2 (Proleukin, Novartis) for 5 days as described (Brezar et al, Eur J Immunol 2012). Cells exiting the islets were subsequently collected and subjected to recall assays against K^d+ L antigen-presenting cells pulsed with the indicated peptides for 6 h in the presence of brefeldin-A, followed by intracellular staining for IFN-γ. The TUM, Ins B15-23 and IGRP 206-214 peptides were included as negative control and positive controls, respectively.

[3] = system: circulating CD8^+ T cells; test: ex vivo combinatorial HLA-A2 MMr assay on PBMCs; assay type: cell-based, human
Protocol: All peptides were synthesized at >90% purity (Synpeptides). HLA-A2 MMrs were produced as described (Leisner et al., 2008) and staining performed in the presence of 50 nM dasatinib (Lissina et al., 2009), as described (Culina et al., 2018). Briefly, cryopreserved PBMCs were magnetically depleted of CD8^− cells (StemCell Technologies), stained with the combinatorial MMr panels (Hadrup et al., 2009) and acquired using a FACSAria III cytometer.

[4] = system: pancreas-infiltrating cells of HLA-A2^+ T1D patients; test: in-situ HLA-A2 MMr staining on pancreas sections; assay type: cell-based, human; conditions: 2 HLA-A2^+ T1D cases (nPOD)
Protocol: In-situ staining was performed as described (Culina et al., 2018). Unfixed, frozen sections were dried for 2 h, loaded with 1 μg of MMrs overnight at 4° C., washed gently with phosphate-buffered saline and fixed in 2% paraformaldehyde for 10 min. After a further wash, endogenous peroxidase activity was blocked with 0.3% H2O2. Sections were then incubated serially with rabbit anti-phycoerythrin, horseradish peroxidase-conjugated swine anti-rabbit and 3,3′-diaminobenzidine tetrahydrochloride substrate (ThermoFisher). After a final wash, sections were counterstained with hematoxylin, dehydrated via sequential passages in 95-100% ethanol and xylene, mounted and analyzed using a Nikon Eclipse Ni microscope with NIS-Elements Analysis D software v4.40.

[5] = HLA-A2^+ healthy donors, screening
[6] = HLA-A2^+ recent-onset T1D and healthy subjects (n=10/each)

GQWEDASLLSK was tested, and the “validation as HLA-A3-restricted CD8^+ T-cell epitope” value (“validation” below) [1] was “positive hits”.

“RYLEHVQAVI [Pcsk2 501-510, murine Pcsk2 peptide predicted to be restricted by K^d]” was tested, and the “percentage of positive mice” value [2] was 63%, the “percentage of IFN-γ^+CD8^+ cells, median” value [2] was 2.7% and the “percentage of IFN-γ^+CD8^+ cells, positive range” value (“percentage … positive range” below) [2] was 2.1-8.0%. For the same substance, the “positive mice (IFN-γ^+CD8^+ cells >1.8%)” value [2] was 5/8.

With “PPI6-14: known preproinsulin β-cell epitope used as β-cell positive control (RLLPLLALL; UniProt P01308 6-14, looked up, fragment) [reference compound]” the “frequency of CD8^+ T cells recognizing the peptide” value [3, 5] was 1-50 /10^6 CD8^+ T cells and the “frequency of circulating CD8^+ T cells recognizing the peptide” value ([3]; HLA-A2^+ recent-onset T1D and healthy subjects (n=10/each), similar in both) was 1-50 /10^6 CD8^+ T cells.

With FLSGAVNRL [SCG5-009186-194] the “cognate naïve CD8^+ T-cell repertoire (frequency 1-50/10^6, clustered MMr staining) validated” value (shortened to “cognate naïve CD8^+ T-cell repertoire”) [3, 5] was “validated” and the “frequency of MMr^+ cells (in words)” value [3, 6] was “particularly high and clustered”.

“GYRDINEIDI [Pcsk2 109-118, murine Pcsk2 peptide predicted to be restricted by K^d]” was tested, and the “percentage of positive mice” value [2] was 50%, the “percentage of IFN-γ^+CD8^+ cells, median” value [2] was 1.8% and the “percentage … positive range” value [2] was 1.9-4.3%.

For “KIF1A860-868: HLA-A3-restricted islet peptide from KIF1A (LLYPVPLVH)”, the “validation” value [1] was “positive hits”.

“VFSCLNTAL [Ucn3 32-40, murine Ucn3 peptide predicted to be restricted by K^d]” was tested, and the “percentage of positive mice” value [2] was 67%, the “percentage of IFN-γ^+CD8^+ cells, median” value [2] was 1.9% and the “percentage … positive range” value [2] was 1.9-3.3%. For the same substance, the “positive mice (IFN-γ^+CD8^+ cells >1.8%)” value [2] was 8/12.

In the case of “SCG3166-174: HLA-A3-restricted islet peptide from secretogranin III (AVFDKIVSK)”, the “validation” value [1] is reported as “positive hits”.

For “PCSK230-38: HLA-A2-restricted HLA-eluted β-cell peptide from proprotein convertase 2 (FTNHFLVEL)”, the “cognate naïve CD8^+ T-cell repertoire” value [3, 5] was “validated”.

In the case of “LYDESCSSTL [Pcsk2 341-350, murine Pcsk2 peptide predicted to be restricted by K^d]”, the “percentage of positive mice” value [2] is reported as 75%, the “percentage of IFN-γ^+CD8^+ cells, median” value [2] is reported as 3.3% and the “percentage … positive range” value [2] is reported as 1.9-5.2%. For the same substance, the “positive mice (IFN-γ^+CD8^+ cells >1.8%)” value [2] was 6/8.

MLMPVHFLL was tested, and the “cognate naïve CD8^+ T-cell repertoire” value [3, 5] was “validated” and the “frequency of MMr^+ cells (in words)” value [3, 6] was “particularly high and clustered”.

“TYFLLPLLL [Ucn3 5-13, murine Ucn3 peptide predicted to be restricted by K^d]” was tested, and the “percentage of positive mice” value [2] was 67%, the “percentage of IFN-γ^+CD8^+ cells, median” value [2] was 2.3% and the “percentage … positive range” value [2] was 2.1-8.6%. For the same substance, the “positive mice (IFN-γ^+CD8^+ cells >1.8%)” value [2] was 8/12.

For “KIF1A1347-1355: HLA-A2-restricted HLA-eluted β-cell peptide from Kinesin Family Member 1A (VLDTSVAYV)”, the “cognate naïve CD8^+ T-cell repertoire” value [3, 5] was “validated”.

With “IGRP 206-214: positive control peptide in NOD recall assay (VYLKTNVFL; UniProt Q9Z186 206-214, looked up, fragment) [reference compound]” the “percentage of positive mice” value [2] was 100%, the “percentage of IFN-γ^+CD8^+ cells, median” value [2] was 12.5% and the “percentage … positive range” value [2] was 4.5-25.3%. For the same substance, the “positive mice (IFN-γ^+CD8^+ cells >1.8%)” value [2] was 13/13.

With “CHGA344-352: HLA-A2-restricted HLA-eluted β-cell peptide from chromogranin A (KMDQLAKEL)” the “cognate naïve CD8^+ T-cell repertoire” value [3, 5] was “validated”.

With “SCG5186-195: HLA-A2-restricted HLA-eluted β-cell peptide from SCG5 (7B2) (YLQGQRLDNV)” the “cognate naïve CD8^+ T-cell repertoire” value [3, 5] was “validated”.

In the case of “ZnT8186-184: positive control islet peptide (VAANIVLTV; UniProt Q8IWU4 186-194, looked up, fragment) [reference compound]”, the “in-situ MMr staining of pancreas sections” value [4] is reported as “MMr^+ cells could be detected”.

With “RLKPSLVGK [SCG5-009193-201, HLA-A3 restricted peptide from mRNA splice variant SCG5-009]” the “validation” value [1] was “positive hits”.

In the case of “ISL1276-284: HLA-A2-restricted HLA-eluted peptide from insulin gene enhancer protein ISL1 (GLQANPVEV)”, the “cognate naïve CD8^+ T-cell repertoire” value [3, 5] is reported as “validated”, the “median frequency detected in peripheral blood” value ([3]; T1D patients) is reported as 7.2×10^−6 and the “in-situ MMr staining of pancreas sections” value [4] is reported as “MMr^+ cells could be detected”.

In the case of “KCNK16129-137: HLA-A2-restricted HLA-eluted β-cell peptide from KCNK16 (ALLGIPLNV)”, the “cognate naïve CD8^+ T-cell repertoire” value [3, 5] is reported as “validated”.

For “PNMA250-58: HLA-A3-binding islet peptide not validated as CD8+ T-cell epitope (RLLGKIFRK)”, the “validation” value [1] was “single exception”.

From patent US12098179B2, “Antigenic peptides deriving from urocortin 3 and uses thereof for the diagnosis and treatment of type 1 diabetes” (INSERM (INSTITUT NATIONAL DE LA SANTÉ ET DE LA RECHERCHE …, priority 2018, dated 2024)
